{"source": "ChEMBL document CHEMBL5303573", "about": "“Mapping human microbiome drug metabolism by gut bacteria and their genes” (Nature, 2019)"}
{"assay": "The drug is tested on Eubacterium ventriosum strain: ATCC27560 for biotransformation. The drug concentrations were measured before and after a 12-h incubation by liquid-chromatography-coupled mass spectrometry (LC–MS)", "type": "ADME", "design": "dose 2 uM, timepoint 0 vs 12 hours", "settings": "2 µM"}
{"smiles": "CC(C)[C@H]1CC[C@H](C(=O)N[C@H](Cc2ccccc2)C(=O)O)CC1", "note": "[NATEGLINIDE]", "Bacterial Biotransformation": "Compound NOT metabolized"}
{"smiles": "COCCc1ccc(OCC(O)CNC(C)C)cc1.COCCc1ccc(OCC(O)CNC(C)C)cc1.O=C(O)C(O)C(O)C(=O)O", "note": "(stereo not drawn) [METOPROLOL TARTRATE]", "Bacterial Biotransformation": "Compound NOT metabolized"}
{"assay": "The drug is tested on Bifidobacterium longum subsp. Infantis strain: CCUG52486 for biotransformation. The drug concentrations were measured before and after a 12-h incubation by liquid-chromatography-coupled mass spectrometry (LC–MS)", "settings": "2 µM"}
{"smiles": "CC(C)[C@H]1CC[C@H](C(=O)N[C@H](Cc2ccccc2)C(=O)O)CC1", "note": "[NATEGLINIDE]", "Bacterial Biotransformation": "Compound metabolized"}
{"smiles": "COCCc1ccc(OCC(O)CNC(C)C)cc1.COCCc1ccc(OCC(O)CNC(C)C)cc1.O=C(O)C(O)C(O)C(=O)O", "note": "(stereo not drawn) [METOPROLOL TARTRATE]", "Bacterial Biotransformation": "Compound NOT metabolized"}
{"settings": "limosilactobacillus reuteri cf48-3a, 12 h, 2 µM", "description": "The drug is tested on Lactobacillus reuteri CF48-3A strain: BEI HM-102 for biotransformation. The drug concentrations were measured before and after a 12-h incubation by liquid-chromatography-coupled mass spectrometry (LC–MS)"}
{"smiles": "CC(C)[C@H]1CC[C@H](C(=O)N[C@H](Cc2ccccc2)C(=O)O)CC1", "note": "[NATEGLINIDE]", "Bacterial Biotransformation": "Compound NOT metabolized"}
{"smiles": "COCCc1ccc(OCC(O)CNC(C)C)cc1.COCCc1ccc(OCC(O)CNC(C)C)cc1.O=C(O)C(O)C(O)C(=O)O", "note": "(stereo not drawn) [METOPROLOL TARTRATE]", "Bacterial Biotransformation": "Compound NOT metabolized"}
{"assay": "The drug is tested on Ruminococcus gnavus strain: ATCC29149 for biotransformation. The drug concentrations were measured before and after a 12-h incubation by liquid-chromatography-coupled mass spectrometry (LC–MS)", "settings": "mediterraneibacter gnavus, 2 µM"}
{"smiles": "CC(C)[C@H]1CC[C@H](C(=O)N[C@H](Cc2ccccc2)C(=O)O)CC1", "note": "[NATEGLINIDE]", "Bacterial Biotransformation": "Compound NOT metabolized"}
{"smiles": "COCCc1ccc(OCC(O)CNC(C)C)cc1.COCCc1ccc(OCC(O)CNC(C)C)cc1.O=C(O)C(O)C(O)C(=O)O", "note": "(stereo not drawn) [METOPROLOL TARTRATE]", "Bacterial Biotransformation": "Compound NOT metabolized"}
{"settings": "bacteroides fragilis, 12 h, 2 µM", "description": "The drug is tested on Bacteroides fragilis strain: NCTC 9343 for biotransformation. The drug concentrations were measured before and after a 12-h incubation by liquid-chromatography-coupled mass spectrometry (LC–MS)"}
{"smiles": "COCCc1ccc(OCC(O)CNC(C)C)cc1.COCCc1ccc(OCC(O)CNC(C)C)cc1.O=C(O)C(O)C(O)C(=O)O", "note": "(stereo not drawn) [METOPROLOL TARTRATE]", "Bacterial Biotransformation": "Compound NOT metabolized"}
{"assay": "The drug is tested on Bacteroides dorei strain: DSM17855 for biotransformation. The drug concentrations were measured before and after a 12-h incubation by liquid-chromatography-coupled mass spectrometry (LC–MS)", "settings": "phocaeicola dorei, 2 µM"}
{"smiles": "COCCc1ccc(OCC(O)CNC(C)C)cc1.COCCc1ccc(OCC(O)CNC(C)C)cc1.O=C(O)C(O)C(O)C(=O)O", "note": "(stereo not drawn) [METOPROLOL TARTRATE]", "Bacterial Biotransformation": "Compound NOT metabolized"}
{"settings": "bacteroides intestinalis, 12 h, 2 µM", "description": "The drug is tested on Bacteroides intestinalis strain: DSM17393 for biotransformation. The drug concentrations were measured before and after a 12-h incubation by liquid-chromatography-coupled mass spectrometry (LC–MS)"}
{"smiles": "COCCc1ccc(OCC(O)CNC(C)C)cc1.COCCc1ccc(OCC(O)CNC(C)C)cc1.O=C(O)C(O)C(O)C(=O)O", "note": "(stereo not drawn) [METOPROLOL TARTRATE]", "Bacterial Biotransformation": "Compound NOT metabolized"}
{"assay": "The drug is tested on Bacteroides finegoldii strain: DSM17565 for biotransformation. The drug concentrations were measured before and after a 12-h incubation by liquid-chromatography-coupled mass spectrometry (LC–MS)", "settings": "2 µM"}
{"smiles": "CC(C)[C@H]1CC[C@H](C(=O)N[C@H](Cc2ccccc2)C(=O)O)CC1", "note": "[NATEGLINIDE]", "Bacterial Biotransformation": "Compound NOT metabolized"}
{"smiles": "COCCc1ccc(OCC(O)CNC(C)C)cc1.COCCc1ccc(OCC(O)CNC(C)C)cc1.O=C(O)C(O)C(O)C(=O)O", "note": "(stereo not drawn) [METOPROLOL TARTRATE]", "Bacterial Biotransformation": "Compound NOT metabolized"}
{"assay": "The drug is tested on Anaerotruncus colihominis strain: DSM17241 for biotransformation. The drug concentrations were measured before and after a 12-h incubation by liquid-chromatography-coupled mass spectrometry (LC–MS)", "settings": "2 µM"}
{"smiles": "CC(C)[C@H]1CC[C@H](C(=O)N[C@H](Cc2ccccc2)C(=O)O)CC1", "note": "[NATEGLINIDE]", "Bacterial Biotransformation": "Compound NOT metabolized"}
{"smiles": "COCCc1ccc(OCC(O)CNC(C)C)cc1.COCCc1ccc(OCC(O)CNC(C)C)cc1.O=C(O)C(O)C(O)C(=O)O", "note": "(stereo not drawn) [METOPROLOL TARTRATE]", "Bacterial Biotransformation": "Compound NOT metabolized"}
{"assay": "The drug is tested on Eubacterium hallii strain: DSM3353 for biotransformation. The drug concentrations were measured before and after a 12-h incubation by liquid-chromatography-coupled mass spectrometry (LC–MS)", "settings": "anaerobutyricum hallii, 2 µM"}
{"smiles": "CC(C)[C@H]1CC[C@H](C(=O)N[C@H](Cc2ccccc2)C(=O)O)CC1", "note": "[NATEGLINIDE]", "Bacterial Biotransformation": "Compound NOT metabolized"}
{"smiles": "COCCc1ccc(OCC(O)CNC(C)C)cc1.COCCc1ccc(OCC(O)CNC(C)C)cc1.O=C(O)C(O)C(O)C(=O)O", "note": "(stereo not drawn) [METOPROLOL TARTRATE]", "Bacterial Biotransformation": "Compound NOT metabolized"}
{"assay": "The drug is tested on Bacteroides fragilis strain: HMW615 for biotransformation. The drug concentrations were measured before and after a 12-h incubation by liquid-chromatography-coupled mass spectrometry (LC–MS)", "settings": "2 µM"}
{"smiles": "CC(C)[C@H]1CC[C@H](C(=O)N[C@H](Cc2ccccc2)C(=O)O)CC1", "note": "[NATEGLINIDE]", "Bacterial Biotransformation": "Compound metabolized"}
{"smiles": "COCCc1ccc(OCC(O)CNC(C)C)cc1.COCCc1ccc(OCC(O)CNC(C)C)cc1.O=C(O)C(O)C(O)C(=O)O", "note": "(stereo not drawn) [METOPROLOL TARTRATE]", "Bacterial Biotransformation": "Compound NOT metabolized"}
{"settings": "akkermansia muciniphila, 12 h, 2 µM", "description": "The drug is tested on Akkermansia muciniphila strain: ATCC BAA-835 for biotransformation. The drug concentrations were measured before and after a 12-h incubation by liquid-chromatography-coupled mass spectrometry (LC–MS)"}
{"smiles": "CC(C)[C@H]1CC[C@H](C(=O)N[C@H](Cc2ccccc2)C(=O)O)CC1", "note": "[NATEGLINIDE]", "Bacterial Biotransformation": "Compound NOT metabolized"}
{"settings": "bacteroides thetaiotaomicron, 12 h, 2 µM", "description": "The drug is tested on Bacteroides thetaiotaomicron strain: 3731 for biotransformation. The drug concentrations were measured before and after a 12-h incubation by liquid-chromatography-coupled mass spectrometry (LC–MS)"}
{"smiles": "CC(C)[C@H]1CC[C@H](C(=O)N[C@H](Cc2ccccc2)C(=O)O)CC1", "note": "[NATEGLINIDE]", "Bacterial Biotransformation": "Compound NOT metabolized"}
{"settings": "roseburia intestinalis, 12 h, 2 µM", "description": "The drug is tested on Roseburia intestinalis strain: L1-82 for biotransformation. The drug concentrations were measured before and after a 12-h incubation by liquid-chromatography-coupled mass spectrometry (LC–MS)"}
{"smiles": "COCCc1ccc(OCC(O)CNC(C)C)cc1.COCCc1ccc(OCC(O)CNC(C)C)cc1.O=C(O)C(O)C(O)C(=O)O", "note": "(stereo not drawn) [METOPROLOL TARTRATE]", "Bacterial Biotransformation": "Compound NOT metabolized"}
{"assay": "The drug is tested on Bifidobacterium ruminantium strain: fecal isolate for biotransformation. The drug concentrations were measured before and after a 12-h incubation by liquid-chromatography-coupled mass spectrometry (LC–MS)", "settings": "2 µM"}
{"smiles": "CC(C)[C@H]1CC[C@H](C(=O)N[C@H](Cc2ccccc2)C(=O)O)CC1", "note": "[NATEGLINIDE]", "Bacterial Biotransformation": "Compound NOT metabolized"}
{"smiles": "COCCc1ccc(OCC(O)CNC(C)C)cc1.COCCc1ccc(OCC(O)CNC(C)C)cc1.O=C(O)C(O)C(O)C(=O)O", "note": "(stereo not drawn) [METOPROLOL TARTRATE]", "Bacterial Biotransformation": "Compound metabolized"}
{"assay": "The drug is tested on Clostridium ramosum strain: DSM1402 for biotransformation. The drug concentrations were measured before and after a 12-h incubation by liquid-chromatography-coupled mass spectrometry (LC–MS)", "settings": "thomasclavelia ramosa, 2 µM"}
{"smiles": "CC(C)[C@H]1CC[C@H](C(=O)N[C@H](Cc2ccccc2)C(=O)O)CC1", "note": "[NATEGLINIDE]", "Bacterial Biotransformation": "Compound NOT metabolized"}
{"smiles": "COCCc1ccc(OCC(O)CNC(C)C)cc1.COCCc1ccc(OCC(O)CNC(C)C)cc1.O=C(O)C(O)C(O)C(=O)O", "note": "(stereo not drawn) [METOPROLOL TARTRATE]", "Bacterial Biotransformation": "Compound NOT metabolized"}
{"assay": "The drug is tested on Bacteroides xylanisolvens strain: DSM18836 for biotransformation. The drug concentrations were measured before and after a 12-h incubation by liquid-chromatography-coupled mass spectrometry (LC–MS)", "settings": "2 µM"}
{"smiles": "CC(C)[C@H]1CC[C@H](C(=O)N[C@H](Cc2ccccc2)C(=O)O)CC1", "note": "[NATEGLINIDE]", "Bacterial Biotransformation": "Compound NOT metabolized"}
{"assay": "The drug is tested on Collinsella aerofaciens strain: ATCC25986 for biotransformation. The drug concentrations were measured before and after a 12-h incubation by liquid-chromatography-coupled mass spectrometry (LC–MS)", "settings": "2 µM"}
{"smiles": "CC(C)[C@H]1CC[C@H](C(=O)N[C@H](Cc2ccccc2)C(=O)O)CC1", "note": "[NATEGLINIDE]", "Bacterial Biotransformation": "Compound NOT metabolized"}
{"smiles": "COCCc1ccc(OCC(O)CNC(C)C)cc1.COCCc1ccc(OCC(O)CNC(C)C)cc1.O=C(O)C(O)C(O)C(=O)O", "note": "(stereo not drawn) [METOPROLOL TARTRATE]", "Bacterial Biotransformation": "Compound NOT metabolized"}
{"assay": "The drug is tested on Providencia stuartii strain: ATCC25827 for biotransformation. The drug concentrations were measured before and after a 12-h incubation by liquid-chromatography-coupled mass spectrometry (LC–MS)", "settings": "2 µM"}
{"smiles": "CC(C)[C@H]1CC[C@H](C(=O)N[C@H](Cc2ccccc2)C(=O)O)CC1", "note": "[NATEGLINIDE]", "Bacterial Biotransformation": "Compound NOT metabolized"}
{"smiles": "COCCc1ccc(OCC(O)CNC(C)C)cc1.COCCc1ccc(OCC(O)CNC(C)C)cc1.O=C(O)C(O)C(O)C(=O)O", "note": "(stereo not drawn) [METOPROLOL TARTRATE]", "Bacterial Biotransformation": "Compound NOT metabolized"}
{"assay": "The drug is tested on Bacteroides sp. WH2 strain: WH2 for biotransformation. The drug concentrations were measured before and after a 12-h incubation by liquid-chromatography-coupled mass spectrometry (LC–MS)", "settings": "bacteroides sp. wh2, 12 h, 2 µM"}
{"smiles": "CC(C)[C@H]1CC[C@H](C(=O)N[C@H](Cc2ccccc2)C(=O)O)CC1", "note": "[NATEGLINIDE]", "Bacterial Biotransformation": "Compound NOT metabolized"}
{"smiles": "COCCc1ccc(OCC(O)CNC(C)C)cc1.COCCc1ccc(OCC(O)CNC(C)C)cc1.O=C(O)C(O)C(O)C(=O)O", "note": "(stereo not drawn) [METOPROLOL TARTRATE]", "Bacterial Biotransformation": "Compound NOT metabolized"}
